Residue numbers refer to the chain shown, from its start.
Key:
[1] = test system: T1, Lysosomal alpha-mannosidase (Homo sapiens), O00754 [L565P]; test: Chaperone activity at human Lysosomal alpha-mannosidase L565P mutant transfected in human […] knockout HAP1 cells assessed as enzyme activity enhancement at 0.2 uM incubated for 96 hrs relative to control
T1 sequence (whole entry): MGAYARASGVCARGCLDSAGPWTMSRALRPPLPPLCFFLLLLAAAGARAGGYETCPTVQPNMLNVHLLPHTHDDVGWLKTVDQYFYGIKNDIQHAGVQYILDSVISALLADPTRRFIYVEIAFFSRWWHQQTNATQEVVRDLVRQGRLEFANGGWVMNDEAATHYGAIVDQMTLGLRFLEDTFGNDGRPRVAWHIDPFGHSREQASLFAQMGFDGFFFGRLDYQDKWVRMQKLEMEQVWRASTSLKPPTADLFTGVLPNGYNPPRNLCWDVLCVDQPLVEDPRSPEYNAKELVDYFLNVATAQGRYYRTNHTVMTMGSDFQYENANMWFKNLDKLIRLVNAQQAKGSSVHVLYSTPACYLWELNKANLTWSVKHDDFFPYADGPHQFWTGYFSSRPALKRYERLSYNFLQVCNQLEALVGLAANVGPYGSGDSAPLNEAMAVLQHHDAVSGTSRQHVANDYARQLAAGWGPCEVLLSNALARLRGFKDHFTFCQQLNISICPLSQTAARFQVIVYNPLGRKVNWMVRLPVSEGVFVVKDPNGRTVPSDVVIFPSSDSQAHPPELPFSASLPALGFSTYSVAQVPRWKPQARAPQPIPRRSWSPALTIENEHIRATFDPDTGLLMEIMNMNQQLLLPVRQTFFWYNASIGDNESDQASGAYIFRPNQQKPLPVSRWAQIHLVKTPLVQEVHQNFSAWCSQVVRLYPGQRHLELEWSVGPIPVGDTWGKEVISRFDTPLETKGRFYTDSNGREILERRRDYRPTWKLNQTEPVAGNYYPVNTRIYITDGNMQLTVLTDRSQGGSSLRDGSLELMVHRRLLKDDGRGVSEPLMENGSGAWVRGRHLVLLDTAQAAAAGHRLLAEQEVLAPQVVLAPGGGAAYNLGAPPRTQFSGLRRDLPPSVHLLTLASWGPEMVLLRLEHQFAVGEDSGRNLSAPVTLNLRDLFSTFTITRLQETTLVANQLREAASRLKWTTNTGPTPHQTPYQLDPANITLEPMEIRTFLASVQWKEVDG

[2] = test system: T2, Lysosomal alpha-mannosidase (Homo sapiens), O00754 [L352P]; test: Chaperone activity at human Lysosomal alpha-mannosidase L352P mutant transfected in human […] knockout HAP1 cells assessed as enzyme activity enhancement at 2 uM incubated for 96 hrs relative to control
T2 sequence (whole entry): T1 sequence (whole entry) with L352P, P565L

SMILES | Activity [1] | Activity [2]
COC[C@H]1O[C@@H]2O[C@H]3[C@H](OC)[C@@H](OC)[C@@H](O[C@H]4[C@H](OC)[C@@H](OC)[C@@H](O[C@H]5[C@H](OC)[C@@H](OC)[C@@H](O[C@H]6[C@H](OC)[C@@H](OC)[C@@H](O[C@H]7[C@H](OC)[C@@H](OC)[C@@H](O[C@H]8[C@H](OC)[C@@H](OC)[C@@H](O[C@H]1[C@H](OC)[C@H]2OC)O[C@@H]8COC)O[C@@H]7COC)O[C@@H]6COC)O[C@@H]5COCc1cn(CCCCCCN[C@@H]2[C@@H](O)[C@@H](O)[C@H](O)[C@H]5COC(=O)N52)nn1)O[C@@H]4COC)O[C@@H]3COC | 0% | 6%
CC(C)(C)OC(=O)NCCCCCCCCCN[C@@H]1[C@@H](O)[C@@H](O)[C@H](O)[C@H]2COC(=O)N21 | 12% | 8%
